{"source": "patent US9750700B2", "about": "(Natco Pharma Limited, priority 2011, dated 2017)", "origin": "cited, not measured here", "conditions": "crystalline form of Imatinib mesylate"}
{"compound": "CS(=O)(=O)O.Cc1ccc(NC(=O)c2ccc(CN3CCN(C)CC3)cc2)cc1Nc1nccc(-c2cccnc2)n1", "note": "[α-crystalline form]", "values": [{"measurement": "hygroscopicity", "value": "hygroscopic"}]}
